Where two headings read alike, the source gives them in different places.
Legend:
[1] = molecular target: human FPR2 receptors (Homo sapiens (Human), UniProt P25090); assay: FPR2 cyclic adenosine monophosphate (cAMP) assay; format: cell-based; details: CHO cells overexpressing human FPR2
Procedure: (§1) FPR2 and FPR1 Cyclic Adenosine Monophosphate (cAMP) Assays. A mixture of forskolin (5 μM final for FPR2 or 10 μM final for FPR1) and IBMX (200 μM final) were added to 384-well Proxiplates (Perkin-Elmer) pre-dotted with test compounds in DMSO (1% final) at final concentrations in the range of 1.7 nM to 100 μM. Chinese Hamster Ovary cells (CHO) overexpressing human FPR1 or human FPR2 receptors were cultured in F-12 (Ham's) medium supplemented with 10% qualified FBS, 250 μg/ml zeocin and 300 μg/ml hygromycin (Life Technologies). Reactions were initiated by adding 2,000 human FPR2 cells per well or 4,000 human FPR1 cells per well in Dulbecco's PBS (with calcium and magnesium) (Life Technologies) supplemented with 0.1% BSA (Perkin-Elmer). The reaction mixtures were incubated for 30 min at room temperature. The level of intracellular cAMP was determined using the HTRF HiRange cAMP assay reagent kit (Cisbio) according to manufacturer's instruction. Solutions of cryptate conjugated anti-cAMP and d2 flurorophore-labelled cAMP were made in a supplied lysis buffer separately. Upon completion of the reaction, the cells were lysed with equal volume of the d2-cAMP solution and anti-cAMP solution. After a 1-h room temperature incubation, time-resolved fluorescence intensity was measured using the Envision (Perkin-Elmer) at 400 nm excitation and dual emission at 590 nm and 665 nm. A calibration curve was constructed with an external cAMP standard at concentrations ranging from 1 μM to 0.1 pM by plotting the fluorescent intensity ratio from 665 nm emission to the intensity from the 590 nm emission against cAMP concentrations. The potency and activity of a compound to inhibit cAMP production was then determined by fitting to a 4-parametric logistic equation from a plot of cAMP level versus compound concentrations.

[2] = molecular target: human FPR1 receptors (Homo sapiens (Human), UniProt P21462); assay: FPR1 cyclic adenosine monophosphate (cAMP) assay; format: cell-based; details: CHO cells overexpressing human FPR1; forskolin 10 μM, IBMX 200 μM; inhibition of cAMP production; read-out: hFPR1 cAMP EC50
Procedure: as §1

[3] = forskolin 5 μM, IBMX 200 μM, inhibition of cAMP production, read-out: hFPR2 cAMP2 EC50
[4] = hFPR2 Assay, potency bins, read-out: hFPR2 agonist activity EC50 values

Chain of human FPR2 receptors (P25090 whole entry): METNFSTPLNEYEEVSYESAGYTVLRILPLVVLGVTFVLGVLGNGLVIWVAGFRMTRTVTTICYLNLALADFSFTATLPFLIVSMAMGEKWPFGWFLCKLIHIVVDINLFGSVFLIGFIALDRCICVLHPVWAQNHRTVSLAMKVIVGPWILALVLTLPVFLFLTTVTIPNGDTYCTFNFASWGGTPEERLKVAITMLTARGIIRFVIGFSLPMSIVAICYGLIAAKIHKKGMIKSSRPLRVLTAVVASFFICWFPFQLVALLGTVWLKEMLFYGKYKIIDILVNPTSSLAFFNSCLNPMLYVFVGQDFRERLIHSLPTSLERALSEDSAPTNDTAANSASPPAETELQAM
Chain of human FPR1 receptors (P21462 whole entry): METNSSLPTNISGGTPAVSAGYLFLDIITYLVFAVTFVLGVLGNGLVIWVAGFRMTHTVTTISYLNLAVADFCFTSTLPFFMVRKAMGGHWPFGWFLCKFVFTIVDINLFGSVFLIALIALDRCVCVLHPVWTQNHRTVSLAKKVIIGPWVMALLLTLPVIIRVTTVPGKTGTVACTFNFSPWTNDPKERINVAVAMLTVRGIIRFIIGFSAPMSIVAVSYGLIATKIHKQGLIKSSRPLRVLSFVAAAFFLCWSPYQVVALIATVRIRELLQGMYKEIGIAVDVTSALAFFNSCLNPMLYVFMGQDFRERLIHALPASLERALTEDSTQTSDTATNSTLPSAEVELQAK

| Structure (SMILES) | EC50 [1, 3] | EC50 [2] | EC50 [1, 4] |
| --- | --- | --- | --- |
| CS(=O)(=O)NCC1(c2ccc(N3CCC[C@@H](NC(=O)Nc4cnc(Cl)cn4)C3=O)cc2)CCC1 [Example 6] | 0.7 nM | 100 nM | – |
| CS(=O)(=O)NCC1(c2ccc(N3CCC[C@@H](NC(=O)Nc4ccc(C(F)(F)F)cc4)C3=O)cc2F)CC1 [Example 18] | 0.17 nM | 2 nM | – |
| CS(=O)(=O)NCC1(c2ccc(N3CCC[C@@H](NC(=O)Nc4cnc(Cl)cn4)C3=O)cc2)CC1 [Example 27] | 0.91 nM | 130 nM | – |
| CS(=O)(=O)NCC1(c2ccc(N3CCC[C@H](NC(=O)Nc4ccc(C(F)(F)F)nc4)C3=O)cc2)CCC1 [Example 30] | – | – | 100 to 1250 nM |
| COc1cnc(NC(=O)N[C@@H]2CCCN(c3ccc(C4(CNS(C)(=O)=O)CC4)cc3)C2=O)c(F)c1 [Example 34] | – | – | 10 to 100 nM |
| CS(=O)(=O)NCC1(c2ccc(N3CCC[C@@H](NC(=O)Nc4ccc(OC(F)F)nc4)C3=O)cc2)CC1 [Example 36] | – | – | ≤ 10 nM |
| CS(=O)(=O)NCC1(c2ccc(N3CCC[C@@H](NC(=O)Nc4cnc(C#N)cn4)C3=O)cc2)CC1 [Example 37] | – | – | 10 to 100 nM |
| CS(=O)(=O)NCC1(c2ccc(N3CCC[C@@H](NC(=O)Nc4ncc(Cl)cc4F)C3=O)cc2)CC1 [Example 39] | – | – | ≤ 10 nM |
| CS(=O)(=O)NCC1(c2ccc(N3CCC[C@@H](NC(=O)Nc4ccc(C(F)(F)F)cc4)C3=O)cc2)CC1 [Example 42] | 0.21 nM | 33 nM | – |
| CS(=O)(=O)NCC1(c2ccc(N3CCC[C@H](NC(=O)Nc4ccc(C(F)(F)F)nc4)C3=O)cc2)CC1 [Example 45] | – | – | 100 to 1250 nM |
| CS(=O)(=O)NCC1(c2ccc(N3CCC[C@@H](NC(=O)Nc4ccc(C(F)(F)F)cn4)C3=O)cc2)CC1 [Example 46] | – | – | ≤ 10 nM |
| N#CC1(c2ccc(N3CCC[C@H](NC(=O)Nc4ccc(C(F)(F)F)cc4)C3=O)cc2)CC1 [Example 48] | – | – | 100 to 1250 nM |
| O=C(Nc1ccc(C(F)(F)F)cn1)N[C@@H]1CCCN(c2ccc(C3(CN4CCCC4)CCCC3)cc2)C1=O [Example 60, (R)-1-(2-oxo-1-(4-(1-(pyrrolidin-1-ylmethyl)cyclopentyl)phenyl)piperidin-3-yl)-3-(5-(trifluoromethyl)pyridin-2-yl)urea] | – | – | 100 to 1250 nM |
| O=C(Nc1ccc(C(F)(F)F)cn1)N[C@@H]1CCCN(c2ccc(C3(CN4CCOCC4)CCCC3)cc2)C1=O [Example 65, (R)-1-(1-(4-(1-(morpholinomethyl)cyclopentyl)phenyl)-2-oxopiperidin-3-yl)-3-(5-(trifluoromethyl)pyridin-2-yl)urea] | – | – | 100 to 1250 nM |
| O=C(Nc1ccc(C(F)(F)F)nc1)N[C@@H]1CCCN(c2ccc(C3(CN4CCCC4)CC3)cc2)C1=O [Example 66, (R)-1-(2-oxo-1-(4-(1-(pyrrolidin-1-ylmethyl)cyclopropyl)phenyl)piperidin-3-yl)-3-(6-(trifluoromethyl)pyridin-3-yl)urea] | – | – | 100 to 1250 nM |
| CN(C)CC1(c2ccc(N3CCC[C@@H](NC(=O)Nc4ccc(C(F)(F)F)nc4)C3=O)cc2)CC1 [Example 67, (R)-1-(1-(4-(1-((dimethylamino)methyl)cyclopropyl)phenyl)-2-oxopiperidin-3-yl)-3-(6-(trifluoromethyl)pyridin-3-yl)urea] | – | – | 100 to 1250 nM |

Other lines, results leading:

| EC50 [1, 3] | EC50 [2] | EC50 [1, 4] | Structure (SMILES) |
| --- | --- | --- | --- |
| – | – | ≤ 10 nM | CS(=O)(=O)NCC1(c2ccc(N3CCC[C@@H](NC(=O)Nc4ccc(C(F)(F)F)nc4)C3=O)cc2)CCCC1 [Example 31] |
| – | – | 100 to 1250 nM | CS(=O)(=O)NCC1(c2ccc(N3CCC[C@H](NC(=O)Nc4ccc(C(F)(F)F)nc4)C3=O)cc2)CCCC1 [Example 32] |
| – | – | ≤ 10 nM | CS(=O)(=O)NCC1(c2ccc(N3CCC[C@@H](NC(=O)Nc4ccc(C(F)(F)F)nc4)C3=O)cc2)CC1 [Example 33] |
| – | – | 100 to 1250 nM | CS(=O)(=O)NCC1(c2ccc(N3CCC[C@@H](NC(=O)Nc4ncc(Cl)cc4Cl)C3=O)cc2)CC1 [Example 35] |
| – | – | 100 to 1250 nM | CS(=O)(=O)NCC1(c2ccc(N3CCC[C@@H](NC(=O)Nc4ccc(OC(F)F)nc4)C3=O)cc2)CC1 [Example 38] |
| – | – | 10 to 100 nM | CS(=O)(=O)NCC1(c2ccc(N3CCC[C@@H](NC(=O)Nc4ncc(C(F)(F)F)cc4F)C3=O)cc2)CC1 [Example 40] |
| 980 nM | 7600 nM | – | CS(=O)(=O)NCC1(c2ccc(N3CCC[C@H](NC(=O)Nc4ncc(Cl)cc4F)C3=O)cc2)CC1 [Example 41] |
| – | – | 10 to 100 nM | CS(=O)(=O)NCC1(c2ccc(N3CCC[C@H](NC(=O)Nc4ccc(C(F)(F)F)cc4)C3=O)cc2)CC1 [Example 43] |
| – | – | 100 to 1250 nM | CS(=O)(=O)NCC1(c2ccc(N3CCC[C@H](NC(=O)Nc4ccc(C(F)(F)F)cn4)C3=O)cc2)CC1 [Example 47] |
| – | – | ≤ 10 nM | N#CC1(c2ccc(N3CCC[C@@H](NC(=O)Nc4ccc(C(F)(F)F)cc4)C3=O)cc2)CC1 [Example 49] |
| – | – | ≤ 10 nM | O=C(Nc1ccc(Cl)cc1)N[C@@H]1CCCN(c2ccc(C3CCOCC3)cc2)C1=O [Example 50] |
| – | – | 100 to 1250 nM | O=C(Nc1ncc(Cl)cc1F)N[C@@H]1CCCN(c2ccc(C3(CN4CCOCC4)CC3)cc2)C1=O [Example 54, (R)-1-(5-chloro-3-fluoropyridin-2-yl)-3-(1-(4-(1-(morpholinomethyl)cyclopropyl)phenyl)-2-oxopiperidin-3-yl)urea] |
| – | – | 100 to 1250 nM | O=C(Nc1ccc(C(F)(F)F)nc1)N[C@@H]1CCCN(c2ccc(C3(CN4CCCC4)CCC3)cc2)C1=O [Example 56, (R)-1-(2-oxo-1-(4-(1-(pyrrolidin-1-ylmethyl)cyclobutyl)phenyl)piperidin-3-yl)-3-(6-(trifluoromethyl)pyridin-3-yl)urea] |
| – | – | 100 to 1250 nM | O=C(Nc1ccc(C(F)(F)F)cn1)N[C@@H]1CCCN(c2ccc(C3(CN4CCCC4)CCC3)cc2)C1=O [Example 59, (R)-1-(2-oxo-1-(4-(1-(pyrrolidin-1-ylmethyl)cyclobutyl)phenyl)piperidin-3-yl)-3-(5-(trifluoromethyl)pyridin-2-yl)urea] |
| – | – | 100 to 1250 nM | O=C(Nc1ccc(C(F)(F)F)nc1)N[C@@H]1CCCN(c2ccc(C3(CN4CCOCC4)CCCC3)cc2)C1=O [Example 61, (R)-1-(1-(4-(1-(morpholinomethyl)cyclopentyl)phenyl)-2-oxopiperidin-3-yl)-3-(6-(trifluoromethyl)pyridin-3-yl)urea] |
| – | – | 10 to 100 nM | O=C(Nc1ccc(C(F)(F)F)cn1)N[C@@H]1CCCN(c2ccc(C3(CN4CCOCC4)CCC3)cc2)C1=O [Example 63, (R)-1-(1-(4-(1-(morpholinomethyl)cyclobutyl)phenyl)-2-oxopiperidin-3-yl)-3-(5-(trifluoromethyl)pyridin-2-yl)urea] |
| – | – | 10 to 100 nM | O=C(Nc1ccc(C(F)(F)F)nc1)N[C@@H]1CCCN(c2ccc(C3(CN4CCOCC4)CC3)cc2)C1=O [Example 64, (R)-1-(1-(4-(1-(morpholinomethyl)cyclopropyl)phenyl)-2-oxopiperidin-3-yl)-3-(6-(trifluoromethyl)pyridin-3-yl)urea] |
| – | – | 10 to 100 nM | CS(=O)(=O)NCC1(c2ccc(N3C[C@H](O)C[C@@H](NC(=O)Nc4ncc(C(F)(F)F)cc4F)C3=O)cc2)CC1 [Example 68, N-((1-(4-((3R,5R)-3-(3-(3-Fluoro-5-(trifluoromethyl)pyridin-2-yl)ureido)-5-hydroxy-2-oxopiperidin-1-yl)phenyl)cyclopropyl)methyl)methanesulfonamide] |
| – | – | 10 to 100 nM | CS(=O)(=O)NCC1(c2ccc(N3C[C@H](O)C[C@@H](NC(=O)Nc4ncc(Cl)cc4F)C3=O)cc2)CC1 [Example 70] |

Source: patent US11124494B2, “Aryl heterocyclic piperidinone formyl peptide 2 receptor and formyl peptide 1 receptor agonists” (Bristol-Myers Squibb Company, priority 2017, dated 2021)
